From patent US5556744A, “Methods and compositions for diagnosing and treating certain HIV infected patients” (The Trustees of the University of Pennsylvania, priority 1994, dated 1996)

Experiments:
Design in all cases: species or system human
[1] = test system: maternal HIV+ sera (antibodies); experiment: RIA / ELISA binding of maternal HIV+ sera to gp120 and gp41 peptides (Example 3)
Summary of the method: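 Peptides were coated at 10 μg/ml in carbonate buffer pH 9.6 and blocked with 1% BSA. Sera at 1:50 and 1:500 were incubated overnight at 4°C and detected with ¹²⁵I anti-human IgG (RIA) or HRP/TMB at OD450 (ELISA). Specific binding was taken as peptide minus no-peptide wells, scored as a ratio to normal human serum.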

[2] = test system: sera samples (antibodies); experiment: ELISA peptide-binding of maternal sera, MN strain peptides (Example 7); details: for % Bound, Non-Transmitter / No. of Sera Samples Bound, Non-Transmitter / % Bound, Transmitter / No. of Sera Samples Bound, Transmitter: n = 5
Method: This example provides additional sera screens using peptides corresponding to sequences of the MN strain. The sera samples (5 transmitters and 5 non-transmitters) were obtained from the NIH and differ from those screened in the previous studies. Peptide binding was analyzed by ELISA as described in Example 3.

[3] = test system: maternal sera (antibodies); experiment: ELISA peptide-binding of maternal sera (Example 6)
Summary of the method: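 Third-trimester maternal sera, from HIV-1 transmitting and non-transmitting mothers, were tested by ELISA against ~16-residue peptides spanning HIV-1 external and transmembrane glycoproteins. Each serum was run with at least 40 peptides, and values are the percentage of sera binding each peptide.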

[4] = Serum No. 1, Non-Transmission Group
[5] = Serum No. 2, Non-Transmission Group
[6] = Serum No. 3, Non-Transmission Group
[7] = Serum No. 4, Transmission Group
[8] = Serum No. 5, Transmission Group
[9] = Serum No. 6, Non-Transmission Group
[10] = Serum No. 7, Non-Transmission Group
[11] = Serum No. 8, Non-Transmission Group
[12] = Serum No. 9, Non-Transmission Group
[13] = Serum No. 10, Transmission Group
[14] = Serum No. 11, Non-Transmission Group
[15] = Serum No. 12, Non-Transmission Group
[16] = Serum No. 13, Transmission Group
[17] = Serum No. 14, Transmission Group
[18] = Serum No. 15, Transmission Group
[19] = Serum No. 16, Non-Transmission Group
[20] = Serum No. 17, Non-Transmission Group
[21] = Serum No. 18, Non-Transmission Group
[22] = Serum No. 19, Transmission Group
[23] = Serum No. 20, Non-Transmission Group

Substance	Binding of maternal HIV+ serum to peptide (sera/NHS ratio) [1, 4]	Binding of maternal HIV+ serum to peptide (sera/NHS ratio) [1, 5]	Binding of maternal HIV+ serum to peptide (sera/NHS ratio) [1, 6]	Binding of maternal HIV+ serum to peptide (sera/NHS ratio) [1, 7]	Binding of maternal HIV+ serum to peptide (sera/NHS ratio) [1, 8]	Binding of maternal HIV+ serum to peptide (sera/NHS ratio) [1, 9]	Binding of maternal HIV+ serum to peptide (sera/NHS ratio) [1, 10]	Binding of maternal HIV+ serum to peptide (sera/NHS ratio) [1, 11]	Binding of maternal HIV+ serum to peptide (sera/NHS ratio) [1, 12]	Binding of maternal HIV+ serum to peptide (sera/NHS ratio) [1, 13]	Binding of maternal HIV+ serum to peptide (sera/NHS ratio) [1, 14]	Binding of maternal HIV+ serum to peptide (sera/NHS ratio) [1, 15]	Binding of maternal HIV+ serum to peptide (sera/NHS ratio) [1, 16]	Binding of maternal HIV+ serum to peptide (sera/NHS ratio) [1, 17]	Binding of maternal HIV+ serum to peptide (sera/NHS ratio) [1, 18]	Binding of maternal HIV+ serum to peptide (sera/NHS ratio) [1, 19]	% Bound, Non-Transmitter [2] [%]	No. of Sera Samples Bound, Non-Transmitter [2]	% Bound, Transmitter [2] [%]	No. of Sera Samples Bound, Transmitter [2]	other results
ELDKWASLWNWFNITNWLWY [Peptide 53]	- (specific OD450 or cpm of sera sample binding to peptide divided by the specific OD450 or cpm of NHS sample binding to peptide, which value is less than 2)	- (specific OD450 or cpm of sera sample binding to peptide divided by the specific OD450 or cpm of NHS sample binding to peptide, which value is less than 2)	- (specific OD450 or cpm of sera sample binding to peptide divided by the specific OD450 or cpm of NHS sample binding to peptide, which value is less than 2)	- (specific OD450 or cpm of sera sample binding to peptide divided by the specific OD450 or cpm of NHS sample binding to peptide, which value is less than 2)	- (specific OD450 or cpm of sera sample binding to peptide divided by the specific OD450 or cpm of NHS sample binding to peptide, which value is less than 2)	- (specific OD450 or cpm of sera sample binding to peptide divided by the specific OD450 or cpm of NHS sample binding to peptide, which value is less than 2)	++ (which value is greater than 3)	- (specific OD450 or cpm of sera sample binding to peptide divided by the specific OD450 or cpm of NHS sample binding to peptide, which value is less than 2)	- (specific OD450 or cpm of sera sample binding to peptide divided by the specific OD450 or cpm of NHS sample binding to peptide, which value is less than 2)	- (specific OD450 or cpm of sera sample binding to peptide divided by the specific OD450 or cpm of NHS sample binding to peptide, which value is less than 2)	- (specific OD450 or cpm of sera sample binding to peptide divided by the specific OD450 or cpm of NHS sample binding to peptide, which value is less than 2)	- (specific OD450 or cpm of sera sample binding to peptide divided by the specific OD450 or cpm of NHS sample binding to peptide, which value is less than 2)	- (specific OD450 or cpm of sera sample binding to peptide divided by the specific OD450 or cpm of NHS sample binding to peptide, which value is less than 2)	- (specific OD450 or cpm of sera sample binding to peptide divided by the specific OD450 or cpm of NHS sample binding to peptide, which value is less than 2)	- (specific OD450 or cpm of sera sample binding to peptide divided by the specific OD450 or cpm of NHS sample binding to peptide, which value is less than 2)	- (specific OD450 or cpm of sera sample binding to peptide divided by the specific OD450 or cpm of NHS sample binding to peptide, which value is less than 2)	0	0	0	0	Binding of maternal HIV+ serum to peptide (sera/NHS ratio) [1, 20]: + (which value is between 2 to 3); Binding of maternal HIV+ serum to peptide (sera/NHS ratio) [1, 21]: - (specific OD450 or cpm of sera sample binding to peptide divided by the specific OD450 or cpm of NHS sample binding to peptide, which value is less than 2); Binding of maternal HIV+ serum to peptide (sera/NHS ratio) [1, 22]: - (specific OD450 or cpm of sera sample binding to peptide divided by the specific OD450 or cpm of NHS sample binding to peptide, which value is less than 2); Binding of maternal HIV+ serum to peptide (sera/NHS ratio) [1, 23]: - (specific OD450 or cpm of sera sample binding to peptide divided by the specific OD450 or cpm of NHS sample binding to peptide, which value is less than 2); Number of Non-Transmitters which bound to peptide ([3]; Non-Transmitters, N = 12): 0; Percent of Non-Transmitters which bound to peptide ([3]; Non-Transmitters, N = 12): 0%; Number of Transmitters which bound to peptide ([3]; Transmitters, N = 4): 0; Percent of Transmitters which bound to peptide ([3]; Transmitters, N = 4): 0%
LRIVFAVLSVVNRVRQGYSP [Peptide 55]	- (specific OD450 or cpm of sera sample binding to peptide divided by the specific OD450 or cpm of NHS sample binding to peptide, which value is less than 2)	- (specific OD450 or cpm of sera sample binding to peptide divided by the specific OD450 or cpm of NHS sample binding to peptide, which value is less than 2)	- (specific OD450 or cpm of sera sample binding to peptide divided by the specific OD450 or cpm of NHS sample binding to peptide, which value is less than 2)	- (specific OD450 or cpm of sera sample binding to peptide divided by the specific OD450 or cpm of NHS sample binding to peptide, which value is less than 2)	- (specific OD450 or cpm of sera sample binding to peptide divided by the specific OD450 or cpm of NHS sample binding to peptide, which value is less than 2)	- (specific OD450 or cpm of sera sample binding to peptide divided by the specific OD450 or cpm of NHS sample binding to peptide, which value is less than 2)	- (specific OD450 or cpm of sera sample binding to peptide divided by the specific OD450 or cpm of NHS sample binding to peptide, which value is less than 2)	- (specific OD450 or cpm of sera sample binding to peptide divided by the specific OD450 or cpm of NHS sample binding to peptide, which value is less than 2)	- (specific OD450 or cpm of sera sample binding to peptide divided by the specific OD450 or cpm of NHS sample binding to peptide, which value is less than 2)	- (specific OD450 or cpm of sera sample binding to peptide divided by the specific OD450 or cpm of NHS sample binding to peptide, which value is less than 2)	- (specific OD450 or cpm of sera sample binding to peptide divided by the specific OD450 or cpm of NHS sample binding to peptide, which value is less than 2)	- (specific OD450 or cpm of sera sample binding to peptide divided by the specific OD450 or cpm of NHS sample binding to peptide, which value is less than 2)	- (specific OD450 or cpm of sera sample binding to peptide divided by the specific OD450 or cpm of NHS sample binding to peptide, which value is less than 2)	- (specific OD450 or cpm of sera sample binding to peptide divided by the specific OD450 or cpm of NHS sample binding to peptide, which value is less than 2)	- (specific OD450 or cpm of sera sample binding to peptide divided by the specific OD450 or cpm of NHS sample binding to peptide, which value is less than 2)	- (specific OD450 or cpm of sera sample binding to peptide divided by the specific OD450 or cpm of NHS sample binding to peptide, which value is less than 2)	0	0	0	0	Binding of maternal HIV+ serum to peptide (sera/NHS ratio) [1, 20]: - (specific OD450 or cpm of sera sample binding to peptide divided by the specific OD450 or cpm of NHS sample binding to peptide, which value is less than 2); Binding of maternal HIV+ serum to peptide (sera/NHS ratio) [1, 21]: - (specific OD450 or cpm of sera sample binding to peptide divided by the specific OD450 or cpm of NHS sample binding to peptide, which value is less than 2); Binding of maternal HIV+ serum to peptide (sera/NHS ratio) [1, 22]: - (specific OD450 or cpm of sera sample binding to peptide divided by the specific OD450 or cpm of NHS sample binding to peptide, which value is less than 2); Binding of maternal HIV+ serum to peptide (sera/NHS ratio) [1, 23]: - (specific OD450 or cpm of sera sample binding to peptide divided by the specific OD450 or cpm of NHS sample binding to peptide, which value is less than 2)
MN-13: gp41 peptide, amino acids 619-637, HIV strain MN, SEQ ID NO: 166																	60	3	0	0	
MN-16: gp41 peptide, amino acids 638-650, HIV strain MN, SEQ ID NO: 167																	0	0	0	0	
MN-19: gp41 peptide, amino acids 531-540, HIV strain MN, SEQ ID NO: 169 (MGAASVTLTV)																	20	1	20	1	
YIKIFIMIVGGLVG [MN-17]																	40	2	0	0	Correlation of peptide binding with non-transmission (in words) ([2]; Example 7): selectively correlate with non-transmission
